Test results reported in paper PMC5399312 (Journal of Experimental & Clinical Cancer Research : CR, 2017).

Tests used:
[1] = Cytotoxicity test (CCK-8); format: cell-based
Method: (§1) Met was used as a positive control. All experiments were performed in triplicate.

HCT116 = test: Cytotoxicity test (CCK-8); format: cell-based; details: Homo sapiens, HCT-116; HCT116, 48 h
Method: as §1

Lovo = test: Cytotoxicity test (CCK-8); format: cell-based; details: Homo sapiens, 48 h
Method: as §1

MCF-7 = test: Cytotoxicity test (CCK-8); format: cell-based; details: Homo sapiens, MCF7; MCF-7, 48 h
Method: as §1

SMMC-7721 = test: Cytotoxicity test (CCK-8); format: cell-based; details: Homo sapiens, SMMC-7721, 48 h
Method: as §1

SW480 = test: Cytotoxicity test (CCK-8); format: cell-based; details: Homo sapiens, SW480, 48 h
Method: as §1

SW480 cells = test: Determination of lactate generation; format: cell-based, human; details: 48 h; versus untreated or Met treated control
Method: After 48 h drug treatment, media was collected and assayed following the manufacturer’s instructions of Lactic Acid Production Detection kit (KeyGen, Nanjing, China) to measure the generation of lactic acid. The assay was determined using a plate reader (Synergy HT, BioTek, USA) at 530 nm. Met was used as a positive control.

HK2 = target: T1, HK2 (Homo sapiens, UniProt P52789); test: In vitro enzyme inhibition assay (G6P-DH coupled, NADH 340 nm); format: biochemical; details: for Vmax: Lineweaver-Burk
T1 construct: made in house; host or cells: E. coli BL21 (DE3)
T1 sequence (P52789 1-917): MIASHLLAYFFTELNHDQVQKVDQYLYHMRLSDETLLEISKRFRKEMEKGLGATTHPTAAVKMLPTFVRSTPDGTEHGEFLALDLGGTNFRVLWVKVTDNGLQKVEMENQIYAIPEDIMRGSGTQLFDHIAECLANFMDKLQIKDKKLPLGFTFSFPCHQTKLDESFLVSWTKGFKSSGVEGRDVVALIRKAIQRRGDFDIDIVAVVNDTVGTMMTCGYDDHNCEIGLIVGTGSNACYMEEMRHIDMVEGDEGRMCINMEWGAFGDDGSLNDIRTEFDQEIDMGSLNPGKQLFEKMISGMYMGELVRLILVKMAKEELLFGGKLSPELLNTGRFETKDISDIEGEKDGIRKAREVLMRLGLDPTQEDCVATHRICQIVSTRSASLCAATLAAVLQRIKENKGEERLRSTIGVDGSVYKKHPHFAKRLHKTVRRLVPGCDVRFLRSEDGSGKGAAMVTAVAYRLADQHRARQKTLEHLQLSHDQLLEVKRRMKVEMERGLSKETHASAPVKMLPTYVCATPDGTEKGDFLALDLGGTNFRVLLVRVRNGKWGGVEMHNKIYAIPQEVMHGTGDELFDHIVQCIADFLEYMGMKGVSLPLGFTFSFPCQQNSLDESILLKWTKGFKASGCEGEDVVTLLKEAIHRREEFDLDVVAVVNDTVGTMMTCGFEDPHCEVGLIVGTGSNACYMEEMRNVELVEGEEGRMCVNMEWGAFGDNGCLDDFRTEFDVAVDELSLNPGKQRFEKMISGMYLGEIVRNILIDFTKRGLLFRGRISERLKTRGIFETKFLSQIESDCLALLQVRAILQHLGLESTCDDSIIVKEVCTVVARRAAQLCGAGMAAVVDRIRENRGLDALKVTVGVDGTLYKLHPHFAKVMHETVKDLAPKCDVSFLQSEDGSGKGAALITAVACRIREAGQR

For `NC(CO)C(=O)NNCc1ccc(O)c(O)c1O` (stereo not drawn) [Benz, Benserazide], the IC50 at 48 h ([1]; African green monkey, Vero normal cells) was > 500 µM, the IC50 at 48 h ([1]; human, LO2 normal cells) was > 500 µM and the IC50 (HCT116) was 181 ± 11.5 µM. For the same molecule, the IC50 (Lovo) was 151 ± 4.5 µM, the IC50 (MCF-7) was 186 ± 12.5 µM and the IC50 (SMMC-7721) was 210 ± 7.9 µM. The IC50 (SW480) was 143 ± 7 µM, the “concentration of lactate in cell culture supernatant” value (SW480 cells) was “remarkably decreased” and the Vmax (HK2; Benz 5 μM) was 0.037 OD/min. For the same molecule, the Vmax (HK2; Benz 10 μM) was 0.029 OD/min, the Vmax (HK2; Benz 20 μM) was 0.018 OD/min and the mechanism of inhibition (HK2; versus glucose) was “combined mechanism of both competitive and noncompetitive binding”.
